Test results reported in PMC8878317, “Chemogenomics identifies acetyl-coenzyme A synthetase as a target for malaria treatment and prevention” (Cell Chemical Biology, 2022).

Key:
PfAcAS T648M = target: T1, PfAcAS T648M (Plasmodium falciparum, UniProt C6KTB4, T648M); experiment: EnzChek assay, recombinant PfAcAS T648M; type: biochemical, P. falciparum
T1 sequence (C6KTB4 1-997 T648M): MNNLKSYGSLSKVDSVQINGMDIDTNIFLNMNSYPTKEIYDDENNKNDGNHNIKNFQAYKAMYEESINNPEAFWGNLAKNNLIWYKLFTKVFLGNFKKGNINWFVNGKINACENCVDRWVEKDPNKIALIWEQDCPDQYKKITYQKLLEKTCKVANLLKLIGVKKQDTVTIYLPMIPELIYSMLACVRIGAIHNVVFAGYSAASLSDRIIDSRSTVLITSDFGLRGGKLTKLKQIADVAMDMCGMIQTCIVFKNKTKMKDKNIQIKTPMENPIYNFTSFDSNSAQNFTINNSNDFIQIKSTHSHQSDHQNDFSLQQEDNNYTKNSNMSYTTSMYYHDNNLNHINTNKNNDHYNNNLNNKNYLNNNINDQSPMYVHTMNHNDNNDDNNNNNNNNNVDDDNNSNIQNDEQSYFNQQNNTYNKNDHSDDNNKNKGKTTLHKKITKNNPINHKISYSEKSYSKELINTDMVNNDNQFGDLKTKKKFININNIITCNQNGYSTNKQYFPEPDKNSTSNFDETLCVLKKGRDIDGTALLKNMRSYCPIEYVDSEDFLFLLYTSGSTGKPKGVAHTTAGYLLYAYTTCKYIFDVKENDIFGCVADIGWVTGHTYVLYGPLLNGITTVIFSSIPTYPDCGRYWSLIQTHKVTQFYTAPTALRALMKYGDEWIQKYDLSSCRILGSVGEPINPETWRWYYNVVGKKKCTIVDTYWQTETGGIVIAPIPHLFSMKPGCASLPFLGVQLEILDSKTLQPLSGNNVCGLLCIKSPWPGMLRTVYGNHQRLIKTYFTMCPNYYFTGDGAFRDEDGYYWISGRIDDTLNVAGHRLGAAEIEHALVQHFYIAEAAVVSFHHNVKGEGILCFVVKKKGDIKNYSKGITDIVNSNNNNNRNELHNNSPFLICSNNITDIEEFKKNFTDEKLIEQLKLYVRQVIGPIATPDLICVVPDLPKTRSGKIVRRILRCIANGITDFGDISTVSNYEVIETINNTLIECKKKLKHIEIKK
Experimental: Steady-state kinetic measurements were conducted at room temperature using a PheraStar plate reader (BMG). The first step of the reaction of PfAcAS, which produces inorganic pyrophosphate (PPi) that is converted to two molecules of inorganic phosphate using a pyrophosphatase enzyme, was continuously monitored using the EnzChek Phosphate Assay Kit, which gives an absorbance readout at 360 nm (Figure 4A) ([Webb, 1992]). […] By adding CoA, the reaction rapidly proceeds to the second step resulting in further release of pyrophosphate, making the EnzChek assay a suitable option to continuously monitor the activity of PfAcAS. Typical kinetic assays were carried out in clear, flat-bottom, polystyrene, 384-well plates (Greiner) in an 80 μL reaction volume containing 100 mM HEPES (pH7.4), 100 mM NaCl, 250 mM KCl, 50 mM MgCl2, 1 mM DTT, 0.004% Tween 20, 0.5 U/mL pyrophosphatase, 0.1 mM MESG, 0.5 U/mL PNP, 2 mM ATP, 2 mM acetate, 0.5 mM CoA and 5 nM recombinant PfAcAS WT or 10 nM recombinant PfAcAS A597V or T648M. Assays were performed by adding 40 μL of a 2-times concentrated substrate mixture including MESG to all wells, and the reactions started by adding 40 μL of a 2-times concentrated reaction mixture containing all other components. The reactions were carried out for 2 to 4 hr with absorbance readings at 360 nm every two to four minutes. Reaction rates were extracted from the linear phase of activity, usually using 10 to 20 points between times of 30 and 100 min of the reactions. Using a phosphate standard curve obtained under the same buffer conditions used for the PfAcAS reactions (Figure S5A), the rates were then converted to velocity per second, conversion of one nanomolar of phosphate, per nanomolar of enzyme, per second. The substrates Km values were determined by varying the concentration of one of the substrates at saturating concentration of the other two substrates. Steady-state data were fitted using the nonlinear, least-squares, curve-fitting programs of Sigma-Plot for Windows, version 14.0. Individual saturation curves were fit to Equation 1(Equation 1) v=VS/K+S where V is the maximal velocity, S is the substrate concentration and K is the Michaelis constant for the substrate (Km). Individual saturation curves displaying substrate inhibition were fit to Equation 2(Equation 2) v=VS/K+S×(1+S/Ks) where Ks is the substrate inhibition constant.
To determine the steady-state inhibition parameters and patterns associated with both inhibitors, PfAcAS activity was studied in the presence of variable concentrations of one substrate, ATP, acetate or CoA, fixed saturating concentration of the other two substrates (acetate and CoA, ATP and CoA, or ATP and acetate) and several fixed concentrations of inhibitor. Assay ready plates containing different concentrations of inhibitor were prepared using an Echo 550 acoustic dispenser (Labcyte Inc.). The assays were carried out as described in the previous section. […] For better comparison between both inhibitors and proteins, the ymin was fixed to zero and the ymax to 100. Inhibition data showing linear, competitive patterns in double-reciprocal plots were fit to Equation 4(Equation 4) v=VS/K(1+I/Ki)+S where Ki is the dissociation constant for the enzyme-inhibitor complex. Inhibition data showing linear, mixed inhibition patterns in double-reciprocal plots were fit to Equation 5(Equation 5) v=VS/K(1+I/Kis)+S(1+I/Kii) where Kis is the dissociation constant for the free enzyme-inhibitor complex and Kii is the dissociation constant for the enzyme-substrate-inhibitor complex. Inhibition data showing linear, uncompetitive patterns in double-reciprocal plots were fit to Equation 6(Equation 6) v=VS/K+S(1+I/Ki)

[1] = test system: histone acetylation in P. falciparum Dd2 parent; experiment: Histone acetylation Western blot, Dd2 parent; type: cell-based; details: trophozoites, 3 h exposure
Experimental: Synchronous trophozoite-stage (24-32hr post-invasion) cultures at 3–5% parasitemia and 2% hematocrit in complete medium were exposed to test compounds for 3 hr at 37°C. […] DMSO was tested at 0.1% as the vehicle-only control. Following drug exposure, parasites were isolated via saponin lysis ice-cold 0.1% saponin in phosphate-buffered saline (PBS). Isolated parasites were washed 3x in ice-cold PBS containing protease inhibitor cocktail (cOmplete mini, Roche) and lysed in 1x Laemmli Sample Buffer (Biorad) with 5% beta-mercaptoethanol (Sigma-Aldrich). Samples were heated at 99°C for 10 min before centrifugation. Equal quantities of solute were separated on Protean TGX Precast Gels (4–20% gradient) in Tris-SDS-glycine buffer, transferred to nitrocellulose membrane by iblot (Invitrogen), and blocked for 1h in tris-buffered saline (TBS) with 5% skim milk powder. Blocked membranes were probed with antibodies recognising tetra-acetylated H4 (H4ac4, Sigma-Aldrich 06–866), H4K8ac (CST #2594), H3K9ac (CST #9649) or H3 (CST #4499), at 1:1000 dilution, and PfBiP ([Shonhai et al., 2007]) (at 1:5000 dilution) in 3% milk powder TBS with 0.1% Tween 20 at 4°C overnight and with 800CW goat α-rabbit IgG (Licor) at 1:10,000 dilution. Membranes were visualised using a Licor Odyssey CLX imaging system and quantified using ImageJ.

P. falciparum parasites = experiment: Isobologram analyses (fractional IC50 of compound combinations); type: cell-based; details: combination with TSA

Row | Structure (SMILES) | Hill, AcAS T648M (PfAcAS T648M) | IC50 (PfAcAS T648M) | histone acetylation in Dd2 parent [1] | interaction in isobologram analyses with the HDAC inhibitor TSA (P. falciparum parasites)
1 | CCN(CC)S(=O)(=O)c1ccc(Cl)c(C(=O)Nc2ccc3nc(C)sc3c2)c1 [MMV019721] | 0.81 ± 0.12 | 18 ± 3.2 µM | dose-dependent reduction | strongly antagonistic
2 | O=C(NNC(=O)c1csnn1)c1ccc(Cl)cc1 [MMV084978] | – | > 100 µM | – | –
